Like-named read-outs stand apart in the source and are kept apart here.
Legend:
kidney tissue [1] = details: rat; for kidney glutathione levels compared with non-treated reperfused group: 3 h ischaemia and 45 min reperfusion (FIG. 9)
Experimental: (§1) Additional studies were performed on kidney tissue in 48 isoflurane-anaesthetised, male Wistar albino rats (300-350 g). […] A further ten minutes was allowed for drug circulation prior to the induction of ischaemia. Tissue ischaemia was produced in all animals by occluding the renal artery to the left kidney. Immediately prior to occlusion, a 1,000 unit bolus of IV heparin was injected to prevent blood clotting and to permit reperfusion. Occlusion was maintained for 3 hours following which, in 6 animals in each group, the occlusion was released and reperfusion of the kidney was allowed. Samples of reperfused tissue were excised 45 minutes following reperfusion. Samples of non-reperfused ischaemic tissue were excised 3 hours post occlusion. Samples of ischaemic tissue and of reperfused tissue were taken from different animals. Samples of non-ischaemic, non-treated tissue were excised from the right kidney of the non-treated group.
Persistent sodium current blockade was evaluated for its effect on kidney tissue glutathione levels during ischaemia and reperfusion.

kidney tissue [2] = details: rat, iv before ischaemia (riluzole 5 mg/kg, lidocaine 1 mg/kg, lamotrigine 20 mg/kg)
Experimental: as §1
In addition, persistent sodium current blockade was assessed for its affect on kidney tissue DNA fragmentation during ischaemia and reperfusion. […] All panels were illuminated by light with wavelength around 520 nm to show DNA fragmentation.

[3] = iv before ischaemia (riluzole 5 mg/kg, lidocaine 1 mg/kg, lamotrigine 20 mg/kg)
[4] = 3 hours of ischaemia and 45 minutes of reperfusion (FIG. 10)
[5] = 3 hours of ischaemia and no reperfusion (FIG. 10)

Row | SMILES | kidney glutathione levels compared with non-treated reperfused group (kidney tissue [1]; [3]) | damaged nuclei (DNA fragmentation) in renal tubules compared with non-treated tissue (kidney tissue [2]; [4]) | damaged nuclei (DNA fragmentation) in renal tubules compared with non-treated tissue (kidney tissue [2]; [5]) | kidney glutathione levels compared with non-treated, non-ischaemic and non-reperfused group (kidney tissue [1]; iv before ischaemia (riluzole 5 mg/kg, lidocaine 1 mg/kg), 3 h ischaemia and 45 min reperfusion (FIG. 9, vs 901)) | kidney glutathione levels after ischaemia (kidney tissue [1]; iv before ischaemia (riluzole 5 mg/kg, lidocaine 1 mg/kg, lamotrigine 20 mg/kg), 3 h renal artery occlusion, no reperfusion (FIG. 8))
1 | Nc1nnc(-c2cccc(Cl)c2Cl)c(N)n1 [lamotrigine] | substantially higher | the reduction in damaged nuclei is still significant | the reduction in damaged nuclei is still significant | – | –
2 | CCN(CC)CC(=O)Nc1c(C)cccc1C [lidocaine] | significantly higher | considerably fewer damaged nuclei | considerably fewer damaged nuclei | not significantly different | not significantly reduced
